Earlier results in patent US10813929B2, “Treating cancer with ATR inhibitors” (VERTEX PHARMACEUTICALS INCORPORATED, priority 2011, dated 2020).

System: pancreatic cancer
Conditions: treatment with gemcitabine, increased from 10%; cited from earlier work

Nc1ccn([C@@H]2O[C@H](CO)[C@@H](O)C2(F)F)c(=O)n1 [gemcitabine]
5-year survival: 20%
